# From article PMC4129416, “YLT192, a Novel, Orally Active Bioavailable Inhibitor of VEGFR2 Signaling with Potent Antiangiogenic Activity and Antitumor Efficacy in Preclinical Models” (Scientific Reports, 2014)
# Columns and labels:
# [1] = Pharmacokinetics in male wistar rats; type: in vivo
# From the text: Appropriate pharmacokinetic parameters are essential to determine the efficacy of anti-cancer drugs. We determined the pharmacokinetic characteristics of YLT192 in male wistar rats. The pharmacokinetic parameters of YLT192 are summarized in Supplementary Table S2 and the plasma concentration versus time profile is shown in Supplementary Figure S3.
# Supplementary Table S2: Pharmacokinetic parameters for YLT192 in rats (n=6 mice per group). Data are means ± SD. […]
# Note: I.V.=intravenous, P.O.=orally administration, Cmax =maximum plasma concentration, AUC=area under the curve, T1/2=half life of the inhibitor, CL=clearance , Vz=volume of distribution, F=bioavailability
# Supplementary Figure S3. Mean plasma concentration-time curves of YLT192.
# After I.V.(20mg/kg) and P.O.(50mg/kg) administration of YLT192 in wistar male rats, the concentration of YLT192 in the plasma was determined by HPLC (n=6 mice per group). Data are means ± SD.
# HUVEC = experiment: Wound healing migration assay; type: cell-based, human; conditions: 24 hours
# From the text: Cell migration is essential for ECs in angiogenesis and for cancer cells in tumor growth and metastasis. […] Cell invasion is essential for EC in angiogenesis, so we performed transwell assays to evaluate the ability of HUVEC to pass through the Matrigel and membrane barriers of the transwell in the presence of various concentrations of YLT192 or vehicle.
# Figure 2 Effects of YLT192 on HUVECs proliferation, migration, invasion and tube formation. […] Cells were wounded by the pipette and then treated with various concentrations of compounds for 24 hours. Migrated cells were quantified by manual counting (50×). […] The bottom chambers of the transwells were filled with 600 μL EGM2 containing various growth factors while the top chambers were seeded with 4 × 10^4 HUVECs in EBM2 and treated with different concentrations of compounds for 24 hours. Cells invaded through the membrane were stained and quantified (100×). […] HUVECs were seeded on Matrigel layer and treated with different concentrations of compounds. HUVECs tube formation was assessed 6 hours later (50×). One representative experiment of three is shown. For (A), (B) and (C), data represent the mean ± SEM of three different experiments. Each experiment was performed in duplicate.*P < 0.05, **P < 0.01. (D) YLT192 inhibited VEGF-induced phosphorylation of VEGFR2 and its downstream signal regulator p44/42 MAPK, STAT3 and AKT in HUVECs. One representative Western blot of three is presented. Each has the expression of β-actin as internal control. The full size blots were shown in the Supplemental Figure S5 online. (E) Cellular thermal shift assay showing VEGFR2 target engagement by YLT192 in intact HUVECs. One representative Western blot of two is presented. The full size blots were shown in the Supplemental Figure S6 online. […]
# HUVECs were allowed to grow into full confluence in 24-well plates and then wounded by scratching with pipette tips and washed with PBS. […] Images were taken using a ZEISS digital microscope and invading cells were counted by manual counting. […]
# [2] = Body weight of tumor-bearing mice during treatment; type: in vivo; conditions: U251 and HCT116 tumor-bearing mice; 25, 50 and 100 mg/kg oral daily
# Method: Figure 5 Anti-tumor activities of YLT192 in vivo. (A) U251 and HCT116 tumor-bearing mice were treated orally with YLT192 at 25, 50 and 100 mg/kg or vehicle daily, respectively. […] (B) Body weight changes in YLT192 and vehicle treated mice. […] For A and B, data are means ± SD. (C) and (D), YLT192 inhibited tumor cell proliferation in HCT116 tumor tissues in vivo. Mice bearing HCT116 tumor xenograft were treated with YLT192 at 50 and 100 mg/kg or vehicle and sacrificed at the end of the experiment. The tumor tissues were removed for further immunohistochemistry analysis using anti-Ki67 (C) and anti-p-p44/42 MAPK antibodies (D). (E) YLT192 induced tumor cell apoptosis in HCT116 tumor in vivo. Apoptosis was measured by TUNEL staining (n = 6 mice per group). Scale bars represent 100 μm.
# All animal experiments were approved and conducted by the Institutional Animal Care and Treatment Committee of Sichuan University in China (Permit Number: 20121205). […] Tumor growth and body weight was measured every three days during the treatment. Tumor volumes were calculated using the formula as follow: volume (mm^3) = 0.5 × length (mm) × width (mm)^2. Growth inhibition was calculated from the start of treatment by comparison of the mean change in tumor volume for vehicle and treated group as before.
# HCT116 tumor xenografts = experiment: Immunohistochemistry of HCT116 xenograft tumor sections (CD31, Ki67, p-p44/42 MAPK, TUNEL); type: in vivo, mice
# Method: To better understand the mechanism of antitumor activities in vivo, immunohistochemistry was performed using tumor tissues isolated from HCT116 at the end of the treatment. […] Furthermore, we investigated the activity of YLT192 on apoptosis in HCT116 xenograft tumors by terminal deoxynucleotidyl transferase (dUTP) nick end labeling (TUNEL) staining.
# Tumour tissues obtained from the mice bearing HCT116 tumors were subjected to immunohistological analysis. Briefly, at the end of the treatment, mice were killed and tumor tissues were obtained. Then CD31 staining was conducted using frozen sections of tissue embedded in optimum cutting temperature[49] and immunohistological detection of anti-Ki67 and p-p44/42 MAPK were performed according to the manufacture's instructions using paraffin-embedded sections of tumor[50]. Apoptotic cells in the tumor tissue were detected by terminal deoxynucleotidyl transferase-mediated dUTP nick end-labeling (TUNEL) staining using an apoptotic cell detection kit (Merck Millipore).
# [3] = male, Wistar, rat, plasma, po, 50 mg/kg, P.O. 50 mg/kg, means ± SD, n=6
compound,measurement,setting,value
CNC(=O)c1cc(Oc2ccc(NC(=O)c3cccc(OC)c3)cc2)ccn1 [YLT192],Vz,"[1]; P.O. 50 mg/kg, means ± SD, n=6",7.84 ± 1.12 L/kg
same,half-life,"[1]; male, Wistar, rat, plasma, iv, 20 mg/kg, I.V. 20 mg/kg, means ± SD, n=6",4.1 ± 2.1 h
same,AUC(0-inf),"[1]; male, Wistar, rat, plasma, iv, I.V. 20 mg/kg, means ± SD, n=6",65900 ± 6200 ng·h/mL
same,Vd,"[1]; male, Wistar, rat, plasma, iv, I.V. 20 mg/kg, means ± SD, n=6, read-out: Vz",1.79 ± 0.24 L/kg
same,bioavailability,"[1]; male, Wistar, rat, plasma, oral, P.O. 50 mg/kg vs I.V. 20 mg/kg, read-out: F (oral bioavailability)",50.5%
same,Cmax,[1]; [3],4100 ± 400 ng/mL
same,half-life,[1]; [3],9.1 ± 4.1 h
same,AUC(0-inf),"[1]; male, Wistar, rat, plasma, po, P.O. 50 mg/kg, means ± SD, n=6",83300 ± 21900 ng·h/mL
same,migration of HUVEC,"HUVEC; 2.5 μM, wound healing",strongly inhibited
same,HUVECs migration in wound healing assay,HUVEC; various concentrations,inhibited HUVECs migration
same,body weight vs vehicle group,[2],no significant difference
same,"apoptotic cells in the tumor tissues, TUNEL staining",HCT116 tumor xenografts; 100 mg/kg,increased apoptotic cells
same,phosphorylation of p44/42 MAPK (p-ERK) in tumor tissues,HCT116 tumor xenografts; 100 mg/kg,significant decrease
same,reduction of microvessel density (MVD),"HCT116 tumor xenografts; 100 mg/kg oral daily, anti-CD31, vs vehicle",69%
same,Ki67 staining in tumor tissues,"HCT116 tumor xenografts; 50 and 100 mg/kg, end of treatment",significant reduction
